Measurements published in patent US20060252807A1, “Novel ortho-terphenyl inhibitors of p38 kinase and methods of treating inflammatory disorders” (Kalypsys, Inc., priority 2005, published 2006).

These compounds were tested against T1, active p38 alpha enzyme (Upstate Biotechnology) (Homo sapiens, UniProt Q16539) (assay: p38α biochemical assay (ATP turnover, luminescent detection, Cambrex PKlight)). Settings: p38α biochemical assay, Table 1 Biological Activity.
T1 construct: purchased Upstate Biotechnology
T1 sequence (Q16539 whole entry): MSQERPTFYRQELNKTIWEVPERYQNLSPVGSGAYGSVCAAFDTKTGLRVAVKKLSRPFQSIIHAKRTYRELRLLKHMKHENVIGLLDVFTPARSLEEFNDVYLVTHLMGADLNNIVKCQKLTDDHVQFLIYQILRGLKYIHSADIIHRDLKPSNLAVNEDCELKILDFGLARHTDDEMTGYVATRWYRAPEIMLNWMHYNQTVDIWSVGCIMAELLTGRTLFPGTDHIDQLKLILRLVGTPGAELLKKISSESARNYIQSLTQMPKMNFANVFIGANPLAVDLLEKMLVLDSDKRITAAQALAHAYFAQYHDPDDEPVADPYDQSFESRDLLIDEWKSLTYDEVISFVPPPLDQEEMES
Experimental: The p38α biochemical assay employed is based on measurement of total ATP turnover following enzyme incubation with substrate in the presence of ATP with the use of a luminescent detection reagent (Cambrex PKlight). The assays were performed in 1536-well white opaque plates.
The final volume was 7.5005 μL as prepared prepared from the addition of 5 ul of kinase reaction (p38 alpah+MapkapK2+ATP) with 0.0005 μL compound dissolved in DMSO, and 2.5 ul of the detection reagent. Assay buffer contains the following reagents to give final concentration in the assay: 200 mM Tris, 100 mM MgCl2, 1.5 mM EGTA, 4 mM CaCl2, 20 mM MOPS, 1 mM EDTA, 1% glycerol, 0.1% B-Mecaptoethanol, and 1 mg/ml BSA. Test compounds are pinned using proprietary pintool technology (Kalypsys, Inc) and delivered as […] amounts into the 5 ul mixture of active p38 alpha enzyme (Upstate Biotechnology) and MapkapK2 (Upstate Biotechnology) whole protein as a substrate for phosphorylation in the presence of 1.4 uM final concentration ATP. Reactions are incubated at 30C for 2 hours and detection reagent is added in 2.5 ul/well amounts. Assay is read using a Perkin Elmer Viewlux.
For `CC(C)NC(=O)c1csc(-c2oc(CNC(=O)c3ccc([N+](=O)[O-])cc3Cl)nc2-c2ccc(F)cc2)n1` [Example 272], the IC50 was no more than 1 µM. With `COc1cc(C(=O)NCc2nc(-c3ccc(F)cc3)c(-c3nc(C(=O)NC(C)C)cs3)o2)cc(Cl)n1` [Example 241] the IC50 was greater than 1 µM. For `Cc1ccccc1CCC(=O)NCc1onc(-c2ccc(F)cc2)c1-c1nc(C(=O)NC(C)C)cs1` [Example 647], the IC50 was greater than 1 µM. Compound `CNC(=O)c1csc(-c2sc(C)nc2-c2ccc(F)cc2)n1` [Example 47, 4′-(4-Fluoro-phenyl)-2′-methyl-|2,5′|bithiazolyl-4-carboxylic acid methylamide] has an IC50 of no more than 1 µM. In the case of `COc1cc(C(=O)NCc2onc(-c3ccc(F)cc3)c2-c2nc(C(=O)NC(C)C)cs2)c([N+](=O)[O-])cc1OC` [Example 782], the IC50 is reported as greater than 1 µM. In the case of `CC(C)NC(=O)c1csc(-c2oc(CN3CCN(C(=O)C(O)CCl)CC3)nc2-c2ccc(F)cc2)n1` (stereo not shown) [Example 352], the IC50 is reported as greater than 1 µM. Compound `CCCCc1ccc(C(=O)NCc2onc(-c3ccc(F)cc3)c2-c2nc(C(=O)NC(C)C)cs2)cc1` [Example 683] has an IC50 greater than 1 µM. `COC(=O)c1ccc(C(=O)N2CCN(Cc3nc(-c4ccc(F)cc4)c(-c4nc(C(=O)NC(C)C)cs4)o3)CC2)cc1` [Example 451] was tested, and the IC50 was greater than 1 µM. For `CC(C)NC(=O)c1csc(-c2[nH]c(CO)nc2-c2ccc(F)cc2)n1` [Example 84, 2-|5-(4-Fluoro-phenyl)-2-hydroxymethyl-3H-imidazol-4-yl|-thiazole-4-carboxylic acid isopropylamide], the IC50 was no more than 1 µM. `COc1cccc(OC)c1C(=O)NCc1nc(-c2ccc(F)cc2)c(-c2nc(C(=O)NC(C)C)cs2)o1` [Example 226] showed an IC50 of no more than 1 µM. Work on `CC(C)NC(=O)c1csc(-c2oc(CN3CCN(C(=O)c4cn(C)cn4)CC3)nc2-c2ccc(F)cc2)n1` [Example 354] yielded an IC50 of no more than 1 µM. `Cc1ccccc1CC(=O)N1CCN(Cc2nc(-c3ccc(F)cc3)c(-c3nc(C(=O)NC(C)C)cs3)o2)CC1` [Example 372] gave an IC50 greater than 1 µM. For `CC(C)NC(=O)c1csc(-c2oc(CNC(=O)C3CCc4ccccc4C3)nc2-c2ccc(F)cc2)n1` (stereo not shown) [Example 204], the IC50 was greater than 1 µM. In the case of `Cc1ccc(C(=O)NCc2onc(-c3ccc(F)cc3)c2-c2nc(C(=O)NC(C)C)cs2)cc1Br` [Example 768], the IC50 is reported as greater than 1 µM. `CC(C)NC(=O)c1csc(-c2c(-c3ccc(F)cc3)noc2CNC(=O)c2cc(F)c(F)cc2[N+](=O)[O-])n1` [Example 753] was tested, and the IC50 was greater than 1 µM. For `CC(C)NC(=O)c1csc(-c2c(-c3ccc(F)cc3)noc2CNC(=O)c2ccc(C#N)cc2)n1` [Example 604], the IC50 was greater than 1 µM. `CC(C)NC(=O)c1csc(-c2c(-c3ccc(F)cc3)noc2CNC(=O)/C=C/c2ccccc2Cl)n1` [Example 706] was tested, and the IC50 was greater than 1 µM. In the case of `CC(C)NC(=O)c1csc(-c2c(-c3ccc(F)cc3)noc2CNC(=O)/C=C/c2ccccc2F)n1` [Example 653], the IC50 is reported as no more than 1 µM. `CC(C)NC(=O)c1csc(-c2oc(CNC(=O)c3ccc4ccccc4c3O)nc2-c2ccc(F)cc2)n1` [Example 245] was tested, and the IC50 was greater than 1 µM. `CC(C)NC(=O)c1csc(-c2oc(CN3CCN(C(=O)c4cccc(Br)c4)CC3)nc2-c2ccc(F)cc2)n1` [Example 505] was tested, and the IC50 was greater than 1 µM. Work on `Cc1ccc(C(=O)N2CCN(Cc3nc(-c4ccc(F)cc4)c(-c4nc(C(=O)NC(C)C)cs4)o3)CC2)c(C)c1` [Example 371] yielded an IC50 of no more than 1 µM. With `Cc1cc(C)c(C(=O)N2CCN(Cc3nc(-c4ccc(F)cc4)c(-c4nc(C(=O)NC(C)C)cs4)o3)CC2)c(C)c1` [Example 412] the IC50 was no more than 1 µM. Compound `CC(C)NC(=O)c1csc(-c2c(-c3ccc(F)cc3)noc2CNC(=O)c2ccc3ncccc3c2)n1` [Example 672] has an IC50 greater than 1 µM. `CC(C)NC(=O)c1csc(-c2oc(CN3CCN(C(=O)C4N=CC([N+](=O)[O-])=CC=C4Cl)CC3)nc2-c2ccc(F)cc2)n1` (stereo not shown) [Example 508] gave an IC50 of no more than 1 µM. `CC(C)NC(=O)c1csc(-c2oc(CNC(=O)Cc3ccc(Br)cc3)nc2-c2ccc(F)cc2)n1` [Example 294] was tested, and the IC50 was greater than 1 µM. In the case of `COc1ccc([N+](=O)[O-])c(C(=O)NCc2nc(-c3ccc(F)cc3)c(-c3nc(C(=O)NC(C)C)cs3)o2)c1` [Example 265], the IC50 is reported as no more than 1 µM.

Same assay, conditions: p38α kinase; Table 1 Biological Activity
`Cc1nc(-c2ccc(F)cc2)c(-c2nc(C(=O)N(Cc3cccnc3)Cc3cccnc3)cs2)s1` [Example 1928] was tested, and the IC50 was greater than 1 µM. Compound `Cc1cccc(N2CCN(Cc3onc(-c4ccc(F)cc4)c3-c3nc(C(=O)NC(C)C)cs3)CC2)c1C` [Example 1588] has an IC50 greater than 1 µM. With `CN1CCN(NC(=O)c2csc(-c3c(-c4ccc(F)cc4)n[nH]c3C3CCNCC3)n2)CC1` [Example 2071] the IC50 was greater than 1 µM. With `CC(C)NC(=O)c1csc(-c2c(-c3ccc(F)cc3)noc2CN(C)CC(O)c2ccc(O)cc2)n1` (stereo not shown) [Example 1572] the IC50 was greater than 1 µM. `CC(C)CC(=O)N1CCC(c2[nH]nc(-c3ccc(F)cc3)c2-c2nc(C(=O)NC(C)C)cs2)CC1` [Example 818] was tested, and the IC50 was greater than 1 µM. `Cc1cccc(CCC(=O)N2CCC(c3[nH]nc(-c4ccc(F)cc4)c3-c3nc(C(=O)NC(C)C)cs3)CC2)c1` [Example 887] showed an IC50 greater than 1 µM. `CC(C)NC(=O)c1csc(-c2c(-c3ccc(F)cc3)n[nH]c2C2CCN(C(=O)c3cccc(C#N)c3)CC2)n1` [Example 844] showed an IC50 greater than 1 µM. Work on `CC(C)NC(=O)c1csc(-c2oc(CN(CCO)[C@H](C)c3ccccc3)nc2-c2ccc(F)cc2)n1` [Example 1244] yielded an IC50 greater than 1 µM. `Cc1nc(-c2ccc(F)cc2)c(-c2nc(C(=O)NCCC(C)C)cs2)s1` [Example 1725] showed an IC50 of no more than 1 µM. With `Cc1cccc(C(=O)N2CCC(c3[nH]nc(-c4ccc(F)cc4)c3-c3nc(C(=O)NC(C)C)cs3)CC2)c1C` [Example 850] the IC50 was greater than 1 µM. Compound `CC(C)NC(=O)c1csc(-c2oc(CN(C)C)nc2-c2ccc(F)cc2)n1` [Example 1182] has an IC50 of no more than 1 µM. Compound `Cc1nc(-c2ccc(F)cc2)c(-c2nc(C(=O)N3CCN(c4ccc([N+](=O)[O-])cc4)CC3)cs2)s1` [Example 1933] has an IC50 greater than 1 µM. For `CC(C)NC(=O)c1csc(-c2c(-c3ccc(F)cc3)n[nH]c2C2CCN(C(=O)/C=C/c3ccccc3)CC2)n1` [Example 845], the IC50 was greater than 1 µM. In the case of `O=C(NCc1ccc(F)c(F)c1)c1csc(-c2c(-c3ccc(F)cc3)n[nH]c2C2CCNCC2)n1` [Example 2112], the IC50 is reported as greater than 1 µM. Compound `CC(C)NC(=O)c1csc(-c2c(-c3ccc(F)cc3)noc2CNC2CCCCC2)n1` [Example 1408] has an IC50 greater than 1 µM. With `CCCc1ccc(C(=O)N2CCC(c3[nH]nc(-c4ccc(F)cc4)c3-c3nc(C(=O)NC(C)C)cs3)CC2)cc1` [Example 890] the IC50 was greater than 1 µM. For `CC(C)NC(=O)c1csc(-c2oc(CNCCc3ccc(S(N)(=O)=O)cc3)nc2-c2ccc(F)cc2)n1` [Example 1176], the IC50 was no more than 1 µM. `Cc1nc(-c2ccc(F)cc2)c(-c2nc(C(=O)N3CCN(c4ccc(O)cc4)CC3)cs2)s1` [Example 1902] gave an IC50 greater than 1 µM. `Cc1nc(-c2ccc(F)cc2)c(-c2nc(C(=O)Nc3ccc4c(c3)CCC4)cs2)s1` [Example 1981] gave an IC50 greater than 1 µM. `CC(C)NC(=O)c1csc(-c2oc(CNc3ccccc3-n3cccc3)nc2-c2ccc(F)cc2)n1` [Example 1354] showed an IC50 greater than 1 µM. For `CC(C)NC(=O)c1csc(-c2oc(CNC3CONC3=O)nc2-c2ccc(F)cc2)n1` (stereo not shown) [Example 1081], the IC50 was greater than 1 µM. `Cc1ccc(S(=O)(=O)NCCNC(=O)c2csc(-c3sc(C)nc3-c3ccc(F)cc3)n2)cc1` [Example 1832] gave an IC50 of no more than 1 µM. Compound `Cc1nc(-c2ccc(F)cc2)c(-c2nc(C(=O)N(C)CC(C)C)cs2)s1` [Example 1842] has an IC50 greater than 1 µM. Compound `COc1ccc(O)c(C(=O)N2CCC(c3[nH]nc(-c4ccc(F)cc4)c3-c3nc(C(=O)NC(C)C)cs3)CC2)c1` [Example 901] has an IC50 greater than 1 µM. `COc1cc2c(cc1OC)CN(Cc1onc(-c3ccc(F)cc3)c1-c1nc(C(=O)NC(C)C)cs1)CC2` [Example 1621] showed an IC50 greater than 1 µM. For `CC(C)NC(=O)c1csc(-c2oc(CN3CCN(Cc4ccccc4)CC3)nc2-c2ccc(F)cc2)n1` [Example 1249], the IC50 was greater than 1 µM. For `Cc1ccccc1NCc1onc(-c2ccc(F)cc2)c1-c1nc(C(=O)NC(C)C)cs1` [Example 1633], the IC50 was greater than 1 µM. For `CC(C)NC(=O)c1csc(-c2c(-c3ccc(F)cc3)n[nH]c2C2CCN(C(=O)c3cc([N+](=O)[O-])ccc3Cl)CC2)n1` [Example 985], the IC50 was greater than 1 µM. Compound `CCCN(CCC)Cc1nc(-c2ccc(F)cc2)c(-c2nc(C(=O)NC(C)C)cs2)o1` [Example 1203] has an IC50 greater than 1 µM. For `Cc1ccc(N2CCN(Cc3nc(-c4ccc(F)cc4)c(-c4nc(C(=O)NC(C)C)cs4)o3)CC2)c(C)c1` [Example 1267], the IC50 was greater than 1 µM. Work on `Cc1nc(-c2ccc(F)cc2)c(-c2nc(C(=O)N3CCCCC3CO)cs2)s1` (stereo not shown) [Example 1864] yielded an IC50 greater than 1 µM. Work on `CC(C)C(C)NC(=O)c1csc(-c2c(-c3ccc(F)cc3)n[nH]c2C2CCNCC2)n1` (stereo not shown) [Example 2047] yielded an IC50 greater than 1 µM. In the case of `COc1cc(CN(C)Cc2onc(-c3ccc(F)cc3)c2-c2nc(C(=O)NC(C)C)cs2)cc(OC)c1OC` [Example 1611], the IC50 is reported as greater than 1 µM. In the case of `Cc1nc(-c2ccc(F)cc2)c(-c2nc(C(=O)N[C@H](C)c3ccccc3)cs2)s1` [Example 1753], the IC50 is reported as no more than 1 µM. `CC(C)NC(=O)c1csc(-c2c(-c3ccc(F)cc3)noc2CNc2ccc3c(c2)CCC3)n1` [Example 1656] showed an IC50 greater than 1 µM. For `CC(C)NC(=O)c1csc(-c2c(-c3ccc(F)cc3)noc2CNCCCN(C)c2ccccc2)n1` [Example 1487], the IC50 was greater than 1 µM. With `Cc1nc(-c2ccc(F)cc2)c(-c2nc(C(=O)N[C@H](CO)Cc3ccccc3)cs2)s1` [Example 1798] the IC50 was no more than 1 µM. For `CC(C)NC(=O)c1csc(-c2oc(CN(CCN(C)C)Cc3ccccc3)nc2-c2ccc(F)cc2)n1` [Example 1252], the IC50 was greater than 1 µM.
